# Assays:
# cyclooxygenase = experiment: In vitro effect on [14C]arachidonic acid metabolism in a cell-free homogenate of murine pulmonary tissue; type: biochemical, CBA mice; conditions: compound 10^−4 M, 37° C., 30 minutes
# Description: Studies of arachidonic acid metabolism was carried out on females CBA mice who where fed a standard vivarium fodder. Animals (mice) were sacrificed, lungs were extracted, homogenized in a glass homogenizer manufactured by the firm “Wheaton” (USA) at 4° C. in 10 volumes of 0.05 M Tris-HCl buffer. Aliquots (0.5 ml) of supernatant were incubated in 0.5 μCi [1-C^14]-arachidonic acid [C^14]-AA, “Amersham”, England; specific activity 50-60 μCi/mmole) at 37° C. for 30 minutes. Non-metabolized [αC^14]-AA and products of metabolism thereof were extracted in 20 volumes of chloroform and methanol mixture (1:1) in extraction efficacy not less than 90% assessed using [C^14]-PGF2α. [C^14]-AA and metabolites thereof were separated and identified using TLC (the plates Kieselgel 60 of the “Merck” firm, Germany) using as an organic phase, the system of solvents (ethylacetate, isooctane, acetic acid, water—110:50:20:100) and labeled standards. Densitometry of autoradiochromograms obtained on the X-ray film X-Omat AR (“Kodak”, USA) and HS 11 (“ORWO”, Germany), was performed on the densiscan KS 3 (“Kipp and Zonnen”, Holland). Quantitative analysis of individual eicosanoids was carried out using radiometry of fractions obtained by high-performance liquid chromatography (the HPLC-system of the “Gilson” form, France; the column ZORBAX C8 of the “Du Pont” firm, USA) and by elution of spots on TLC-plates. The tested compounds were administered at concentration 10^−4 M.
# [1] = tested on: "acetic contortions" in mice; experiment: Analgetic activity on the model "acetic contortions"; type: in vivo, white mongrel mice; conditions: dose 10 mg/kg (table title)
# Description: (§1) The tests were conducted on males of white mongrel mice weighing 22-24 grams. The specific pain response (“contortions”) were elicited by intraperitoneal administration to mice of 0.75% acetic acid solution. The following signs were taken into consideration: the number of seizure contractions of abdominal muscles accompanied by stretching the hind limbs and sagging the back. Analgetic effect was assessed by decrease in the number of contortions in animals in percent to the control for 15 minutes post administration of acetic acid. The technique of the tests is disclosed in Koster R., Anderson M., de Beer B.//Fed. Proc. 1959. V. 18. P. 412. Compounds under testing were administered intraperitoneally (using a probe) at a dose 10 μg/kg 60 minutes prior to injection of the acid. Diclofenac (10 mg/kg) was used as a reference drug. Analgetic effect was calculated according to the formula: […]
# wherein Ck is the number of contortions in the control group,
# Co is the number of contortions in the test group.
# [2] = tested on: "acetic contortions" in mice; experiment: Effect on analgetic action of Tramal and Analgin on the model "acetic contortions"; type: in vivo, white mongrel mice
# Description: as §1
# The studies were carried out in accordance with the technique presented in Example 18.
# [3] = tested on: carrageenan edema of rat paw; experiment: Carrageenan edema of rat paw; type: in vivo, outbreed white rats; conditions: rats; 1% ointment; 4 hours post carrageenan
# Description: The tests were conducted on males of outbreed white rats weighing 250-270 grams. The model of carrageenan edema was used which model is described in Winter et al. In: DeRosa M., Giroud J. P. Willoughby D. A. Studies of the mediators of acute inflammatory response induced in rats in different sites by carrageenan and turpentine.//J. Pharmacol. 1971. V. 104. P. 15-29.
# 0.1 ml 1% carrageenan solution (SERVA) was subplantarly injected into a right paw of rats. The animals were placed into individual chambers. […] Paw volume was measured using a pletismometer (Ugo Besile) at 4 hours post carrageenan administration. Therapeutic effect of the ointment was assessed by the inhibition degree of inflammatory reaction as compared to an intact left paw of the given animal and to a paw reaction of a control (untreated) group of rats. Inhibition of inflammatory reaction expressed in percent was calculated according to the formula: […]
# [4] = IX 10 mg/kg alone (Analgin study)
smiles,measurement,setting,value
"O=C(CCc1ccc(O)cc1)NCCc1ccccc1 [Compound IX, 3-(p-hydroxyphenyl)-propionylphenylethylamine]",Prostanoids,cyclooxygenase; b308 reads these as % cyclooxygenase inhibition,−33
same,6-keto-PGF1α,cyclooxygenase; change,−30
same,AA (arachidonic acid),cyclooxygenase; change,+47
same,PGE2,cyclooxygenase; change,−38
same,PGF2α,cyclooxygenase; change,−27
same,TXB2,cyclooxygenase; change,−40
same,inhibition in vivo at 10 mg/kg,"[1]; Mus musculus, ip, 0.25 h, read-out: Analgetic effect (%)",68%
same,response vs control in vivo at 10 mg/kg,"[1]; Mus musculus, ip, 0.25 h, read-out: C, % to the control",32%
same,C ± m (the number of contortions for 15 minutes),[1]; 60 minutes prior to acetic acid,11.8 ± 2.9
same,"Analgetic effect, %",[2]; [4],43.3%
same,"Number of contortions for 15 minutes, M ± m",[2]; [4],18.8 ± 3.1
same,"Analgetic effect, %","[2]; IX 10 mg/kg, Tramal 10 mg/kg, alone or combined",33.6%
same,Edema inhibition (%),[3],53.1%
same,Paw volume gain (%),[3],32.9%

# — patent US8309766B2 (Obschestvo S. Organichennoi Otvetstvennostiyu …, priority 2005, dated 2012)
